Results as given in US20190002399A1 (Nektar Therapeutics, priority 2007, published 2019).
Like-named read-outs stand apart in the source and are kept apart here. Marks after values point to notes of the source that are not given here.

Key:
[1] = target: T1, human Na channels expressed in native cells (human atrial myocytes) (Homo sapiens, UniProt Q14524); experiment: Potency at sodium channels: whole-cell patch clamp of sodium current (INa) in isolated human atrial myocytes; assay type: cell-based
T1 construct: from tissue; host or cells: cardiomyocytes isolated from human atrial appendages
Protocol: Experiments were performed at 23±1° C. Currents were measured using the whole-cell variant of the patch clamp method. An Axopatch 1-B amplifier (Axon Instruments, Foster City, Calif.) was used for whole-cell voltage clamping. […] Peak inward current was measured for INa. […] Creation of voltage clamp pulses and data acquisition were controlled by a PC running pClamp software (version 9.2, Axon Instruments). Test compounds were added in a cumulative manner. Data are presented as % reduction of current amplitude. […] Each cell served as its own control. Log-linear plots were created of the mean percent blockade ±SEM at the concentrations tested. Nonlinear curve fitting routine was utilized to fit a three-parameter Hill equation to the results using MicroCal Origin, version 6.0 software.

CB-1 male mice = experiment: Analgesic assay: acetic acid writhing test; assay type: in vivo
Protocol: An analgesic assay was used to determine whether a given compound can reduce and/or prevent visceral pain in mice.
The assay utilized CB-1 male mice (5-8 mice per group), each mouse being approximately 0.015-0.030 kg on the study day. Mice were treated according to standard protocols.
Mice were given a single “pretreatment” dose of a compound lacking covalent attachment of a water-soluble, non-peptidic oligomer, a corresponding conjugate comprising the compound covalently attached to a water-soluble, non-peptidic oligomer, or control solution (IV, SC, IP or orally) thirty minutes prior to the administration of the acetic acid solution. The animal was given an IP injection of an irritant (acetic acid) that induces “writhing” which may include: contractions of the abdomen, twisting and turning of the trunk, arching of the back and the extension of the hind limbs. […] After the injection the animals were returned to their cages and their behavior was observed. Contractions were counted between 0 and 20 minutes after the injection. The animals were used once. […]

[2] = pKa determination of conjugates; assay type: physicochemical
[3] = Log P determination of conjugates; assay type: physicochemical
[4] = lidocaine series, IC50 at 0.1 Hz relative to lidocaine
[5] = 10 mg/kg, SC, 30 min before IP 0.5% acetic acid, counted 0-20 min
[6] = 10 mg/kg, SC, animals with writhes ≤ upper 95% confidence limit for morphine
[7] = 10 mg/kg, SC, responding animals/N
[8] = mexiletine series, IC50 at 0.1 Hz relative to mexiletine
[9] = lidocaine series, peak INa, human atrial myocytes, pacing 0.1 Hz, 23±1° C

T1 sequence (Q14524 whole entry): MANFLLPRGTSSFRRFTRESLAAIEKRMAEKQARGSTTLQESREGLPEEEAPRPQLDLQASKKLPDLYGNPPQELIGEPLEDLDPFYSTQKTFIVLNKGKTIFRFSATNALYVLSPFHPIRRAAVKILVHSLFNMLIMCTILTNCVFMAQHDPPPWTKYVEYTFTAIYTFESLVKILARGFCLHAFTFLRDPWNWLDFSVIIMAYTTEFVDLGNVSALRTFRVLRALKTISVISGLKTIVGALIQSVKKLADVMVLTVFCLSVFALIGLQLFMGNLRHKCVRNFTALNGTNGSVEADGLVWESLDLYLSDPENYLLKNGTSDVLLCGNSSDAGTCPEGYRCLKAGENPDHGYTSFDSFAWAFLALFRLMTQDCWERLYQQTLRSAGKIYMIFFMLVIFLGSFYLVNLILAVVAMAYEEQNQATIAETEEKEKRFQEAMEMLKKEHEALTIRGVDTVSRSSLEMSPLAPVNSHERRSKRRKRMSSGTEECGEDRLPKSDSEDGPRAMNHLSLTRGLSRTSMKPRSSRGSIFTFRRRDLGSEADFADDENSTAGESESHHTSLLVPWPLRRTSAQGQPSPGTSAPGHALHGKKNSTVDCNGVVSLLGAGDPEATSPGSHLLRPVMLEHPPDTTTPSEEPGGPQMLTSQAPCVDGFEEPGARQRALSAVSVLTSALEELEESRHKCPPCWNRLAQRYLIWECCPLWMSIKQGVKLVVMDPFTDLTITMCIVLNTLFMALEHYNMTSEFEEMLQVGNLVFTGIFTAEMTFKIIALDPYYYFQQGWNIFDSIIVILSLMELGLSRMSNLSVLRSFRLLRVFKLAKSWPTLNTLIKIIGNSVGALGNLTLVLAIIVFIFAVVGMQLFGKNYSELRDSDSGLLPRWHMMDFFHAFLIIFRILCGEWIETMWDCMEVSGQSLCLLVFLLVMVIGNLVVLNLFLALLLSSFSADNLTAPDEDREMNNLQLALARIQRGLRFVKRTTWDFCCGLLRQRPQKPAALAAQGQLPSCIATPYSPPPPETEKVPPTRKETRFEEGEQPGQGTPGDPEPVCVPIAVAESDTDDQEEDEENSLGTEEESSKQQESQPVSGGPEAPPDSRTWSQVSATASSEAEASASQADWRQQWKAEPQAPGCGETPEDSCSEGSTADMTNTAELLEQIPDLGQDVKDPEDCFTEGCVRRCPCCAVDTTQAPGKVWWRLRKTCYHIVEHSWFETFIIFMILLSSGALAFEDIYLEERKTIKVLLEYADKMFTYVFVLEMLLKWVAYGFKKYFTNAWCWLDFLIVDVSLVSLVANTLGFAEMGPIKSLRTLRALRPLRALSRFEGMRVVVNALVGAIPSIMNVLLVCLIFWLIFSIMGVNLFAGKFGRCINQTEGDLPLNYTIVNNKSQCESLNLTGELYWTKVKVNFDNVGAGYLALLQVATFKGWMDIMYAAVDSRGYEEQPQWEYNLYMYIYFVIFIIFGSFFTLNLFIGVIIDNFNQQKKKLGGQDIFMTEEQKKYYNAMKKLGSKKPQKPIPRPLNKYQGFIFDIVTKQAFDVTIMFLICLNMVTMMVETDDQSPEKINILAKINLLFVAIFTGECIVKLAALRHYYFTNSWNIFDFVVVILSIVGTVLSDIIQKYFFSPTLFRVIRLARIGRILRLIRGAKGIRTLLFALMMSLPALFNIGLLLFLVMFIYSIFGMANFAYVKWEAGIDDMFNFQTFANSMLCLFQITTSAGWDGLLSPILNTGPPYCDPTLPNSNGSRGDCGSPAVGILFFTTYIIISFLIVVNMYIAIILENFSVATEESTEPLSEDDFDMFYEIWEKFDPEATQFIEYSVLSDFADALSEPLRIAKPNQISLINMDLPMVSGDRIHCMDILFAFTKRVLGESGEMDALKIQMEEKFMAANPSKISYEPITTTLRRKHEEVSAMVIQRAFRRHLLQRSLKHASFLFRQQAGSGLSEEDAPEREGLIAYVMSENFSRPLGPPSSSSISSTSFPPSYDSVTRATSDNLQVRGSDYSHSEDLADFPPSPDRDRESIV

Compound | Fold Change vs. Parent [1, 4] | IC50 ([1]; read-out: IC50 at 0.1 Hz) | % Reduction in Writhing (CB-1 male mice; 10 mg/kg, SC) | Mean (writhes) (CB-1 male mice; [5]) | # of Responders (CB-1 male mice; [6]) | Responding Fraction (CB-1 male mice; [7]) | pKa1 ([2]; Table 2, mexiletine conjugates) | logP ([3]; read-out: LogP) | Fold Change vs. Parent [1, 8] | other results
CCNCCOCCOCCOCCOCCN(CC)CC(=O)Nc1c(C)cccc1C [EtNH-PEG5-Lidocaine, EtNH-PEG5-lidocaine] | 1 | 99.3 µM |  |  |  |  |  |  |  | 
CCN(CC)CC(=O)Nc1c(C)cccc1C [Lidocaine, lidocaine, reference compound] |  |  | 37.5% | 36.3 | 2 | 0.50 |  |  |  | 
CN(C)C(=O)C(CCN1CCC(O)(c2ccc(Cl)cc2)CC1)(c1ccccc1)c1ccccc1 [Loperamide, reference compound] |  |  |  |  |  |  |  |  |  | # of Responders (CB-1 male mice; 0.75 mg/kg, SC): 4; % Reduction in Writhing (CB-1 male mice; 0.75 mg/kg, SC): 78.6%; Responding Fraction (CB-1 male mice; 0.75 mg/kg, SC): 1.00; Mean (writhes) (CB-1 male mice; 0.75 mg/kg, SC, 30 min before IP 0.5% acetic acid, counted 0-20 min): 9.0
CN1CC[C@]23c4c5ccc(O)c4O[C@H]2[C@@H](O)C=C[C@H]3[C@H]1C5 [Morphine, morphine, reference compound] |  |  |  |  |  |  |  |  |  | # of Responders (CB-1 male mice; historical morphine data, N 27, animals with writhes ≤ upper 95% confidence limit for morphine): 15; Mean (writhes) (CB-1 male mice; historical morphine data, contractions counted 0-20 min after IP 0.5% acetic acid, group table: SC 0.5 mg/kg): 21.33; % Reduction in Writhing (CB-1 male mice; historical morphine data, group table: SC 0.5 mg/kg): 57%; Responding Fraction (CB-1 male mice; historical morphine data, responding animals/N): 0.56
COCCOCCOCCN(CCOCCOCCOC)C(C)COc1c(C)cccc1C (stereo not drawn) [N,N-Di-mPEG3-Mexiletine, N,N-di-mPEG3-mexiletine] |  | 66.2 µM |  |  |  |  | 7.76 | 1.96 | 1 | 
COCCOCCOCCOCCOCCN(CCOCCOCCOCCOCCOC)C(C)COc1c(C)cccc1C (stereo not drawn) [N,N-Di-mPEG5-Mexiletine, N,N-di-mPEG5-mexiletine] |  | 95.9 µM |  |  |  |  | 8.26 | 1.61 | 2 | 
COCCOCCOCCOCCOCCOCCOCCN(CCOCCOCCOCCOCCOCCOCCOC)C(C)COc1c(C)cccc1C (stereo not drawn) [N,N-Di-mPEG7-Mexiletine, N,N-di-mPEG7-mexiletine] |  | 130 µM |  |  |  |  | 7.75 | 0.83 | 2 | 
COCCOCCOCCOCCCNC(C)COc1c(C)cccc1C (stereo not drawn) [N-mPEG3-C3-Mexiletine, N-mPEG3-C3-mexiletine] |  | 188 µM | 46.3% | 29.8 | 2 | 0.40 | 8.98 | 2.05 | 4 | 
COCCOCCOCCNC(C)COc1c(C)cccc1C (stereo not drawn) [N-mPEG3-Mexiletine, N-mPEG3-mexiletine] |  | 284 µM |  |  |  |  | 8.27 | 2.26 | 5 | 
COCCOCCOCCOCCOCCNC(C)COc1c(C)cccc1C (stereo not drawn) [N-mPEG5-Mexiletine, N-mPEG5-mexiletine] |  |  | 42.4% | 29.0 | 2 | 0.40 | 8.27 | 4.51 |  | pKa2 ([2]; Table 2, mexiletine conjugates): 7.86
COCCOCCOCCOCCOCCOCCOCCNC(C)COc1c(C)cccc1C (stereo not drawn) [N-mPEG7-Mexiletine, N-mPEG7-mexiletine] |  | 206 µM |  |  |  |  | 8.26 | 1.23 | 4 | 
COCCOCCOCCOCCOCCOCCOCCOCCNC(C)COc1c(C)cccc1C (stereo not drawn) [N-mPEG8-Mexiletine, N-mPEG8-mexiletine] |  | 90.5 µM | 65.8% | 17.2 | 3 | 0.60 | 8.79 | 1.79 | 2 | 
Cc1cccc(C)c1OCC(C)NCCOCCOCCOCCNC(C)COc1c(C)cccc1C (stereo not drawn) [PEG4-Di-Mexiletine, PEG4-di-Mexiletine] |  | 7.32 µM |  |  |  |  | 7.73 | 2.36 | 0.14 | 
CCN(CCOCCOCCOCCOCCO)CC(=O)Nc1c(C)cccc1C [PEG5-Lidocaine, HO-PEG5-Lidocaine] | 3 | 330 µM |  |  |  |  |  |  |  | 
CCN(CCOCCOCCOCCOCCOCCO)CC(=O)Nc1c(C)cccc1C [PEG6-Lidocaine, HO-PEG6-Lidocaine] | 1 | 104 µM |  |  |  |  |  |  |  | 
CCN(CCOCCOCCOC)CC(=O)Nc1c(C)cccc1C [mPEG3-Lidocaine, mPEG3-lidocaine] | 7 | 706 µM |  |  |  |  |  | 1.55 |  | pKa ([2]; read-out: pKa): 6.46
CCN(CCOCCOCCOCCOC)CC(=O)Nc1c(C)cccc1C [mPEG4-Lidocaine, mPEG4-lidocaine] | 2 | 178 µM |  |  |  |  |  | 1.42 |  | pKa ([2]; read-out: pKa): 6.46
CCN(CCOCCOCCOCCOCCOC)CC(=O)Nc1c(C)cccc1C [mPEG5-Lidocaine, mPEG5-lidocaine] | 1 |  |  |  |  |  |  |  |  | pKa ([2]; Table 1, lidocaine conjugates): 6.46; logP ([3]; Table 1, lidocaine conjugates): 1.01; IC50 [1, 9]: 53.5 µM
CCN(CCOCCOCCOCCOCCOCCOC)CC(=O)Nc1c(C)cccc1C [mPEG6-Lidocaine, mPEG6-lidocaine] | 5 | 473 µM |  |  |  |  |  | 1.23 |  | pKa ([2]; read-out: pKa): 6.46
CCN(CCOCCOCCOCCOCCOCCOCCOC)CC(=O)Nc1c(C)cccc1C [mPEG7-Lidocaine, mPEG7-lidocaine] | 2 |  | 40.5% | 36.0 | 2 | 0.40 |  |  |  | pKa ([2]; Table 1, lidocaine conjugates): 6.81; logP ([3]; Table 1, lidocaine conjugates): 1.37; IC50 [1, 9]: 236 µM
CCN(CCOCCOCCOCCOCCOCCOCCOCCOC)CC(=O)Nc1c(C)cccc1C [mPEG8-Lidocaine, mPEG8-lidocaine] | 1 | 57.5 µM | 37.2% | 38.0 | 2 | 0.40 |  | 0.63 |  | pKa ([2]; read-out: pKa): 6.43
CCN(CCOCCOCCOCCOCCOCCOCCOCCOCCOC)CC(=O)Nc1c(C)cccc1C [mPEG9-Lidocaine, mPEG9-lidocaine] | 2 | 173 µM |  |  |  |  |  | 0.82 |  | pKa ([2]; read-out: pKa): 6.57
PEG5-di-lidocaine [mPEG5-Di-Lidocaine] | 1 |  | 60.3* % | 17.3 | 2 | 0.50* |  |  |  | # of Responders (CB-1 male mice; 3 mg/kg, SC): 2; % Reduction in Writhing (CB-1 male mice; 3 mg/kg, SC): 46.0%; Responding Fraction (CB-1 male mice; 3 mg/kg, SC): 0.50; Mean (writhes) (CB-1 male mice; 3 mg/kg, SC, 30 min before IP 0.5% acetic acid, counted 0-20 min): 23.5; IC50 [1, 9]: 83.3 µM
PEG6-di-lidocaine [mPEG6-Di-Lidocaine] | 2 |  | 37.9% | 27.0 | 3 | 0.60 |  |  |  | IC50 [1, 9]: 236 µM
